Test results taken from US20100197610A1, “FRUCTOSE 1, 6 BISPHOSPHATE - A NOVEL ANTICONVULSANT DRUG” (Baylor College of Medicine, priority 2007, published 2010).

What was measured:
in vivo = assay: in vivo; design: species or system rats; settings: Sprague-Dawley, rat, po
Protocol: Actual levels of FDP were determined by monitoring absorbance of reduced nicotinamide adenine dinucleotide (NADH) and treating the sample with aldolase (EC 4.1.2.13, 45 units mg-1 diluted 1:27 with distilled water), the enzyme which cleaves FDP into dihydroxyacetone phosphate (DAP) and D-glyceraldehyde 3-phosphate (GAP). DAP and GAP are interconverted by the enzyme triosephosphate isomerase (TIM, EC 5.3.3.1, 5290 units mg-1 diluted 1:120 with distilled water). Glycerol-3-phosphate dehydrogenase (GDH, EC 1.1.1.8, 252 units mg-1 diluted 1:100 with distilled water) catalyzes the reduction of DAP by NADH. For the FDP measurements, 1.5 ml of tetraethyl ammonium buffer (TEA, 0.4 mol l-1, pH 7.6 with EDTA 40 mmol l-1) was added to 1 ml of the sample in a 4 ml cuvette. […] After 5 min the absorbance was read 3 times at 340 nm, each reading 3 min apart. The average of these readings is the initial absorbance (Ai). This step removes any DAP or GAP in the sample and determines the baseline absorbance. […] Nine minutes after addition of the aldolase, the final absorbance (Af) was determined by 3 readings at 340 nm, each 6 minutes apart. The concentration of FDP in the sample was proportional to the difference in the initial and final absorbance. […] Levels of FDP in blood were determined per ml, while levels in tissue samples were determined as a function of tissue weight. […]

brain slices = assay: Uptake of FDP in brain slices in vitro; assay type: in vitro ADME, Sprague-Dawley rats; settings: incubation 1 hour in 500 μg ml-1 FDP, then washed
Protocol: Actual levels of FDP were determined by monitoring absorbance of reduced nicotinamide adenine dinucleotide (NADH) and treating the sample with aldolase (EC 4.1.2.13, 45 units mg-1 diluted 1:27 with distilled water), the enzyme which cleaves FDP into dihydroxyacetone phosphate (DAP) and D-glyceraldehyde 3-phosphate (GAP). DAP and GAP are interconverted by the enzyme triosephosphate isomerase (TIM, EC 5.3.3.1, 5290 units mg-1 diluted 1:120 with distilled water). Glycerol-3-phosphate dehydrogenase (GDH, EC 1.1.1.8, 252 units mg-1 diluted 1:100 with distilled water) catalyzes the reduction of DAP by NADH. […] After 5 min the absorbance was read 3 times at 340 nm, each reading 3 min apart. The average of these readings is the initial absorbance (Ai). This step removes any DAP or GAP in the sample and determines the baseline absorbance. […] Nine minutes after addition of the aldolase, the final absorbance (Af) was determined by 3 readings at 340 nm, each 6 minutes apart. The concentration of FDP in the sample was proportional to the difference in the initial and final absorbance. […] Levels of FDP in blood were determined per ml, while levels in tissue samples were determined as a function of tissue weight.
Additional experiments determined the uptake of FDP in brain slices in vitro. […]

[1] = Capillary depletion of brain samples (FDP in stripped vs whole cortex); assay type: in vivo, Sprague-Dawley rats
Protocol: Actual levels of FDP were determined by monitoring absorbance of reduced nicotinamide adenine dinucleotide (NADH) and treating the sample with aldolase (EC 4.1.2.13, 45 units mg-1 diluted 1:27 with distilled water), the enzyme which cleaves FDP into dihydroxyacetone phosphate (DAP) and D-glyceraldehyde 3-phosphate (GAP). DAP and GAP are interconverted by the enzyme triosephosphate isomerase (TIM, EC 5.3.3.1, 5290 units mg-1 diluted 1:120 with distilled water). […] After 5 min the absorbance was read 3 times at 340 nm, each reading 3 min apart. The average of these readings is the initial absorbance (Ai). This step removes any DAP or GAP in the sample and determines the baseline absorbance. Aldolase (0.01 ml) was then added and mixed to cleave FDP into DAP and GAP. Nine minutes after addition of the aldolase, the final absorbance (Af) was determined by 3 readings at 340 nm, each 6 minutes apart. The concentration of FDP in the sample was proportional to the difference in the initial and final absorbance. Two moles of NADH are oxidized for each mole of FDP. Blanks and a FDP standard sample were run in parallel with every assay. Each blank had 1.6 ml of the TEA buffer, 1.4 ml water and the mixture of TIM and GDH. […] Levels of FDP in blood were determined per ml, while levels in tissue samples were determined as a function of tissue weight. […]

In the case of `O=C(COP(=O)(O)O)[C@@H](O)[C@H](O)[C@H](O)COP(=O)(O)O` [F1,6BP, Fructose-1,6-bisphosphate], the concentration at 7 days (in vivo) is reported as 22200 ± 3300 ng/mL, the “FDP levels in the brain” value (in vivo; 7 days) is reported as 0.50 ± 0.024 mg/g and the “tissue levels of FDP in brain slices” value (brain slices) is reported as 0.22 ± 0.013 mg/g. For the same compound, the “ratio of FDP in the stripped cortex to the FDP in whole cortex” value ([1]; animals treated with FDP, n=7) was 0.91±0.01 and the “levels of FDP in the endothelial cells compared to control” value ([1]; sacrificed ≦2 hours or more than 12 hours after FDP) was “no difference”.
